Assay results from ChEMBL document CHEMBL3390836, “Mannich- and LedererManasse-based analogues of the natural product S-(+)-curcuphenol as cancer proliferation and migration inhibitors” (Medchemcomm, 2012).

Columns and labels:
Type in all cases: functional
[1] = Cytotoxicity against human SKOV3 cells assessed as cell growth at 10^-6 M after 48 hrs by SRB assay relative to control; settings: SK-OV-3, 48 h, read-out: Activity
[2] = system: NCI-H226; assay: Cytotoxicity against human NCI-H226 cells assessed as cell growth at 10^-6 M after 48 hrs by SRB assay relative to control; settings: NCI-H226, 48 h, read-out: Activity
[3] = system: SW-620; assay: Cytotoxicity against human SW620 cells assessed as cell growth at 10^-8 M after 48 hrs by SRB assay relative to control; settings: SW-620, 48 h, read-out: Activity
[4] = system: HL-60(TB); assay: Cytotoxicity against human HL-60(TB) cells assessed as cell growth at 10^-8 M after 48 hrs by SRB assay relative to control; settings: HL-60, 48 h, read-out: Activity
[5] = system: CAKI-1; assay: Cytotoxicity against human Caki1 cells assessed as cell growth at 10^-7 M after 48 hrs by SRB assay relative to control; settings: CAKI-1, 48 h, read-out: Activity
[6] = system: HCC 2998; assay: Cytotoxicity against human HCC2998 cells assessed as cell growth at 10^-8 M after 48 hrs by SRB assay relative to control; settings: HCC 2998, 48 h, read-out: Activity
[7] = system: SK-MEL-28; assay: Cytotoxicity against human SK-MEL-28 cells assessed as cell growth at 10^-6 M after 48 hrs by SRB assay relative to control; settings: SK-MEL-28, 48 h, read-out: Activity
[8] = system: 786-0; assay: Cytotoxicity against human 786-0 cells assessed as cell growth at 10^-7 M after 48 hrs by SRB assay relative to control; settings: 786-0, 48 h, read-out: Activity
[9] = system: MCF7; assay: Cytotoxicity against human MCF7 cells after 48 hrs by SRB assay; settings: MCF7, 48 h; for CC50: read-out: LC50 (the source's name)
[10] = system: MDA-MB-435; assay: Cytotoxicity against human MDA-MB-435 cells assessed as cell growth at 10^-6 M after 48 hrs by SRB assay relative to control; settings: MDA-MB-435, 48 h, read-out: Activity
[11] = system: HT-29; assay: Cytotoxicity against human HT-29 cells assessed as cell growth at 10^-6 M after 48 hrs by SRB assay relative to control; settings: HT-29, 48 h, read-out: Activity
[12] = system: SF-268; assay: Cytotoxicity against human SF268 cells assessed as cell growth at 10^-8 M after 48 hrs by SRB assay relative to control; settings: SF-268, 48 h, read-out: Activity
[13] = Cytotoxicity against human NCI-ADR-RES cells after 48 hrs by SRB assay
[14] = system: MOLT-4; assay: Cytotoxicity against human MOLT4 cells after 48 hrs by SRB assay; settings: MOLT-4, 48 h
[15] = system: NCI-H322M; assay: Cytotoxicity against human NCI-H322M cells assessed as cell growth at 10^-4 M after 48 hrs by SRB assay relative to control; settings: read-out: Activity
[16] = system: T47D; assay: Cytotoxicity against human T47D cells assessed as cell growth at 10^-4 M after 48 hrs by SRB assay relative to control; settings: read-out: Activity
[17] = system: SK-MEL-28; assay: Cytotoxicity against human SK-MEL-28 cells after 48 hrs by SRB assay; settings: SK-MEL-28, 48 h; for CC50: read-out: LC50 (the source's name)
[18] = system: 786-0; assay: Cytotoxicity against human 786-0 cells assessed as cell growth at 10^-6 M after 48 hrs by SRB assay relative to control; settings: 786-0, 48 h, read-out: Activity
[19] = system: NCI-H226; assay: Cytotoxicity against human NCI-H226 cells assessed as cell growth at 10^-4 M after 48 hrs by SRB assay relative to control; settings: NCI-H226, 48 h, read-out: Activity
[20] = system: IGROV-1; assay: Cytotoxicity against human IGROV1 cells after 48 hrs by SRB assay; settings: IGROV-1, 48 h
[21] = system: HL-60(TB); assay: Cytotoxicity against human HL-60(TB) cells assessed as cell growth at 10^-6 M after 48 hrs by SRB assay relative to control; settings: HL-60, 48 h, read-out: Activity
[22] = system: RXF 393; assay: Cytotoxicity against human RXF393 cells assessed as cell growth at 10^-7 M after 48 hrs by SRB assay relative to control; settings: RXF 393, 48 h, read-out: Activity
[23] = system: NCI-H460; assay: Cytotoxicity against human NCI-H460 cells assessed as cell growth at 10^-7 M after 48 hrs by SRB assay relative to control; settings: NCI-H460, 48 h, read-out: Activity
[24] = system: HCC 2998; assay: Cytotoxicity against human HCC2998 cells assessed as cell growth at 10^-4 M after 48 hrs by SRB assay relative to control; settings: HCC 2998, 48 h, read-out: Activity
[25] = system: HL-60(TB); assay: Cytotoxicity against human HL-60(TB) cells assessed as cell growth at 10^-7 M after 48 hrs by SRB assay relative to control; settings: HL-60, 48 h, read-out: Activity
[26] = system: NCI-H322M; assay: Cytotoxicity against human NCI-H322M cells assessed as cell growth at 10^-7 M after 48 hrs by SRB assay relative to control; settings: read-out: Activity
[27] = system: IGROV-1; assay: Cytotoxicity against human IGROV1 cells assessed as cell growth at 10^-4 M after 48 hrs by SRB assay relative to control; settings: IGROV-1, 48 h, read-out: Activity
[28] = system: TK-10; assay: Cytotoxicity against human TK10 cells assessed as cell growth at 10^-8 M after 48 hrs by SRB assay relative to control; settings: TK-10, 48 h, read-out: Activity
[29] = system: HCC 2998; assay: Cytotoxicity against human HCC2998 cells assessed as cell growth at 10^-6 M after 48 hrs by SRB assay relative to control; settings: HCC 2998, 48 h, read-out: Activity
[30] = system: T47D; assay: Cytotoxicity against human T47D cells assessed as cell growth at 10^-7 M after 48 hrs by SRB assay relative to control; settings: read-out: Activity
[31] = Cytotoxicity against human HCT116 cells after 48 hrs by SRB assay; settings: HCT-116, 48 h; for CC50: read-out: LC50 (the source's name)
[32] = Cytotoxicity against human OVCAR4 cells after 48 hrs by SRB assay; settings: OVCAR-4, 48 h
[33] = system: LOX IMVI; assay: Cytotoxicity against human LOXIMVI cells assessed as cell growth at 10^-8 M after 48 hrs by SRB assay relative to control; settings: read-out: Activity
[34] = Cytotoxicity against human EKVX cells assessed as cell growth at 10^-8 M after 48 hrs by SRB assay relative to control; settings: read-out: Activity
[35] = system: MOLT-4; assay: Cytotoxicity against human MOLT4 cells assessed as cell growth at 10^-7 M after 48 hrs by SRB assay relative to control; settings: MOLT-4, 48 h, read-out: Activity
[36] = Cytotoxicity against human OVCAR4 cells assessed as cell growth at 10^-6 M after 48 hrs by SRB assay relative to control; settings: OVCAR-4, 48 h, read-out: Activity

Work on `COc1ccc(CCN2COc3c([C@@H](C)CCC=C(C)C)ccc(C)c3C2)cc1OC` yielded a growth at 1 µM [1] of 102%, a growth at 1 µM [2] of 94% and a growth at 0.01 µM [3] of 97%. It also gave a growth at 0.01 µM [4] of 98%, a growth at 0.1 µM [5] of 91% and a growth at 0.01 µM [6] of 77%. It also gave a growth at 1 µM [7] of 99%, a growth at 0.1 µM [8] of 65% and a GI50 [9] of 3.29 µM. For the same compound, the TGI [9] was 11 µM, the CC50 [9] was 36.3 µM and the growth at 1 µM [10] was 96%. The growth at 1 µM [11] was 91%, the growth at 0.01 µM [12] was 85% and the GI50 [13] was 2.96 µM. For the same compound, the LC50 (lethal concentration, 50% cell kill) [13] was 35.2 µM, the TGI [13] was 9.51 µM and the GI50 [14] was 3.69 µM. The LC50 [14] was > 100 µM, the TGI [14] was > 100 µM and the growth at 100 µM [15] was -69%. For the same compound, the growth at 100 µM [16] was -91%, the GI50 [17] was 2.21 µM and the TGI [17] was 4.94 µM. It also gave a CC50 [17] of 13.3 µM, a growth at 1 µM [18] of 96% and a growth at 100 µM [19] of -93%. For the same compound, the GI50 [20] was 1.08 µM, the LC50 (concentration killing 50% of cells) [20] was 12.7 µM and the TGI [20] was 3.52 µM. The growth at 1 µM [21] was 100%, the growth at 0.1 µM [22] was 88% and the growth at 0.1 µM [23] was 100%. The growth at 100 µM [24] was -100%, the growth at 0.1 µM [25] was 99% and the growth at 0.1 µM [26] was 95%. For the same compound, the growth at 100 µM [27] was -99%, the growth at 0.01 µM [28] was 88% and the growth at 1 µM [29] was 88%. For the same compound, the growth at 0.1 µM [30] was 69%, the GI50 [31] was 2.17 µM and the TGI [31] was 4.94 µM. For the same compound, the CC50 [31] was 13.3 µM, the GI50 [32] was 2.89 µM and the LC50 [32] was > 100 µM. It also gave a TGI [32] of 16 µM, a growth at 0.01 µM [33] of 87% and a growth at 0.01 µM [34] of 93%. The growth at 0.1 µM [35] was 89% and the growth at 1 µM [36] was 85%.
With `CC(C)=CCC[C@H](C)c1ccc(C)c2c1OCN(CC1CCNCC1)C2` the growth at 1 µM [1] was 100%, the growth at 1 µM [2] was 101% and the growth at 0.01 µM [3] was 96%. For the same compound, the growth at 0.01 µM [4] was 96%, the growth at 0.1 µM [5] was 108% and the growth at 0.01 µM [6] was 111%. The growth at 1 µM [7] was 101%, the growth at 0.1 µM [8] was 88% and the GI50 [9] was 6.15 µM. It also gave a TGI [9] of 18.7 µM, a CC50 [9] of 45.2 µM and a growth at 1 µM [10] of 96%. It also gave a growth at 1 µM [11] of 103%, a growth at 0.01 µM [12] of 102% and a GI50 [13] of 16.8 µM. It also gave an LC50 (lethal concentration, 50% cell kill) [13] of 71.8 µM, a TGI [13] of 34.8 µM and a GI50 [14] of 14.6 µM. For the same compound, the LC50 [14] was > 100 µM, the TGI [14] was 43.3 µM and the growth at 100 µM [15] was -68%. For the same compound, the growth at 100 µM [16] was -70%, the GI50 [17] was 15.7 µM and the TGI [17] was 28.3 µM. For the same compound, the CC50 [17] was 54.8 µM, the growth at 1 µM [18] was 99% and the growth at 100 µM [19] was -84%. It also gave a GI50 [20] of 16.6 µM, an LC50 (concentration killing 50% of cells) [20] of 62.5 µM and a TGI [20] of 32.2 µM. The growth at 1 µM [21] was 82%, the growth at 0.1 µM [22] was 112% and the growth at 0.1 µM [23] was 106%. For the same compound, the growth at 100 µM [24] was -94%, the growth at 0.1 µM [25] was 91% and the growth at 0.1 µM [26] was 99%. For the same compound, the growth at 100 µM [27] was -86%, the growth at 0.01 µM [28] was 118% and the growth at 1 µM [29] was 104%. The growth at 0.1 µM [30] was 94%, the GI50 [31] was 7.17 µM and the TGI [31] was 21.7 µM. The CC50 [31] was 56.3 µM, the GI50 [32] was 16 µM and the LC50 [32] was 58.9 µM. For the same compound, the TGI [32] was 30.7 µM, the growth at 0.01 µM [33] was 100% and the growth at 0.01 µM [34] was 104%. For the same compound, the growth at 0.1 µM [35] was 104% and the growth at 1 µM [36] was 101%.
